The values below come from ChEMBL document CHEMBL4002569, “Improved anticancer and antiparasitic activity of new lawsone Mannich bases” (Eur J Med Chem, 2017).

Activity calls are given as the source filed them. The rule behind the calls is not given here.

The subject of series [1] is PC-3. The series can be described thus: Antiproliferative activity against human PC3 cells at <10 uM after 96 hrs by MTT assay. It counts as functional, cell-based. In general terms: Tetrazolium dyes change colour on reduction, which living cells bring about.
Series [2] relates to BXPC-3. The experiment in a line: Antiproliferative activity against human BxPC3 cells at >10 to 25 uM after 96 hrs by MTT assay. In kind it is functional, cell-based.
Series [3] has as its system MDA-MB-231. The experiment in a line: Antiproliferative activity against human MDA-MB-231 cells at >10 to 25 uM after 96 hrs by MTT assay. It counts as functional, cell-based.
Series [4] concerns BXPC-3. The experiment in a line: Antiproliferative activity against human BxPC3 cells at <10 uM after 96 hrs by MTT assay. In kind it is functional, cell-based.
Series [5] deals with PC-3. The experiment in a line: Antiproliferative activity against human PC3 cells at >10 to 25 uM after 96 hrs by MTT assay. It counts as functional, cell-based.
Series [6] concerns MDA-MB-231. The series can be described thus: Antiproliferative activity against human MDA-MB-231 cells at <10 uM after 96 hrs by MTT assay. In kind it is functional, cell-based.
Series [7] concerns MDA-MB-231. The experiment in a line: Antiproliferative activity against human MDA-MB-231 cells at 1 to 50 uM after 96 hrs by MTT assay. It counts as functional, cell-based.
Another series concerns KB-V1. The series can be described thus: Antiproliferative activity against vinblastine-resistant human KBV1 cells after 72 hrs by MTT assay. In kind it is functional, cell-based. To be noted: KB-V1, 72 h.
Series [8] concerns PC-3. The experiment in a line: Antiproliferative activity against human PC3 cells at 1 to 50 uM after 96 hrs by MTT assay. It counts as functional, cell-based.
Series [9] deals with 518A2. The series can be described thus: Antiproliferative activity against human 518A2 cells after 72 hrs by MTT assay. In kind it is functional, cell-based. As to conditions: 518A2, 72 h.
The subject of series [10] is BXPC-3. The series can be described thus: Antiproliferative activity against human BxPC3 cells at 1 to 50 uM after 96 hrs by MTT assay. It counts as functional, cell-based.
For the next series, the system named is HCT-116. The series can be described thus: Antiproliferative activity against human HCT116 cells after 72 hrs by MTT assay. It counts as functional, cell-based. As to conditions: HCT-116, 72 h.
Another series deals with PANC-1. The experiment in a line: Antiproliferative activity against human PANC1 cells after 72 hrs by MTT assay. In kind it is functional, cell-based. To be noted: PANC-1, 72 h.
For series [11], the system named is Trypanosoma brucei brucei. The experiment in a line: Antitrypanosomal activity against bloodstream trypomastigote form of Trypanosoma brucei brucei 65.3 […] after 72 hrs by Alamar Blue assay. In kind it is functional, cell-based. To be noted: Trypanosoma brucei, 65.3, 72 h. On the technique in general: The colour change of resazurin is a common sign of viable cells or microbes.

Series [12] has as its system BXPC-3. The series can be described thus: Antiproliferative activity against human BxPC3 cells at <25 uM after 96 hrs by MTT assay. It counts as functional, cell-based.
Series [13] deals with PC-3. The experiment in a line: Antiproliferative activity against human PC3 cells at <25 uM after 96 hrs by MTT assay. It counts as functional, cell-based.
Series [14] deals with MDA-MB-231. The series can be described thus: Antiproliferative activity against human MDA-MB-231 cells at <25 uM after 96 hrs by MTT assay. It counts as functional, cell-based.
Series [15] has as its system Trypanosoma brucei brucei. The series can be described thus: Antitrypanosomal activity against bloodstream trypomastigote form of Trypanosoma brucei brucei 65.3 assessed as deformation of microtubule cytoskeleton at 10 uM after 3 to 6 hrs by DAPI staining-based fluorescence microscopic method. In kind it is functional.
The subject of series [16] is 518A2. The series can be described thus: Induction of reactive oxygen species generation in human 518A2 cells at 0.1 uM after 24 hrs by NBT assay relative to control. It counts as functional.
For series [17], the system named is 518A2. The experiment in a line: Induction of reactive oxygen species generation in human 518A2 cells at 0.5 uM after 24 hrs by NBT assay relative to control. In kind it is functional.
The subject of series [18] is Trypanosoma brucei brucei. The series can be described thus: Antitrypanosomal activity against bloodstream trypomastigote form of Trypanosoma brucei brucei 65.3 assessed as deformation of microtubule cytoskeleton at 1 uM after 0.5 to 24 hrs by DAPI staining-based fluorescence microscopic method. It counts as functional.
Series [19] concerns HeLa. The series can be described thus: Cytotoxicity against human HeLa cells assessed as effect on cytoskeleton at 10 uM after 1 to 9 hrs by DAPI staining-based fluorescence microscopic method. In kind it is cell-based.
For series [20], the system named is Trypanosoma brucei brucei. The experiment in a line: Antitrypanosomal activity against bloodstream trypomastigote form of Trypanosoma brucei brucei 65.3 assessed as decrease in parasite motility at 1 uM after 0.5 to 24 hrs by DAPI staining-based fluorescence microscopic method relative to control. It counts as functional.
Series [21] concerns HeLa. The experiment in a line: Cytotoxicity against human HeLa cells assessed as effect on cell viability at 10 uM after 1 to 9 hrs by DAPI staining-based fluorescence microscopic method.
The subject of series [22] is Trypanosoma brucei brucei. The experiment in a line: Antitrypanosomal activity against bloodstream trypomastigote form of Trypanosoma brucei brucei 65.3 assessed as cell debris of dead and lysed parasite at 10 uM after 12 to 24 hrs by DAPI staining-based fluorescence microscopic method. It counts as functional.

As for `CCCCCCCCCCCCNC(C1=C(O)C(=O)c2ccccc2C1=O)c1ccc(F)c(F)c1` (configuration not stated), the “growth inhibition (GI)” value in the series on PC-3 [1], with BXPC-3 [4] and with MDA-MB-231 [6] was “inactive” each time. Further, the “growth inhibition (GI)” value in the series with BXPC-3 [2], with MDA-MB-231 [3] and in the series on PC-3 [5] was “Active” in each case.

The IC50 is the concentration at which inhibition is half-maximal. High values mean weaker potency, low ones greater potency. For `CCCCCCCCCCCCCCCCNC(C1=C(O)C(=O)c2ccccc2C1=O)c1ccc(O)c(OC)c1` (configuration not stated), the “growth inhibition (GI)” value in the series with MDA-MB-231 [7], with PC-3 [8] and with BXPC-3 [10] was “Active” in each case. Besides, the IC50 in the series with KB-V1 was 16.8 µM; with 518A2 [9], 12.2 µM; in the series on HCT-116, 11.4 µM; in the series on PANC-1 it was 7.94 µM.

With `N=C(N)c1ccc(OCCCCCOc2ccc(C(=N)N)cc2)cc1` [PENTAMIDINE], the IC50 in [11] turned out to be 0.005 µM.

On to `CCCCCCCCCCCCCCNC(C1=C(O)C(=O)c2ccccc2C1=O)c1ccc(F)c(F)c1` (configuration not stated), for which the “growth inhibition (GI)” value in the series with PC-3 [1], in the series with BXPC-3 [4] and in the series on MDA-MB-231 [6] was “inactive” in each case. Also, the “growth inhibition (GI)” value in the series with BXPC-3 [2], in the series on MDA-MB-231 [3] and in the series with PC-3 [5] was “Active” each time.

`COc1cc(C(NCc2ccccc2)C2=C(O)C(=O)c3ccccc3C2=O)ccc1O` (configuration not stated): the “growth inhibition (GI)” value in the series with BXPC-3 [12], in the series on PC-3 [13] and in the series on MDA-MB-231 [14] was “inactive” each time.

In the case of `O=C1C(O)=C(C(NCc2ccccn2)c2ccccn2)C(=O)c2ccccc21` (configuration not stated), the IC50 was determined as 8.61 µM in the series with KB-V1, 6.98 µM with 518A2 [9], 6.77 µM with HCT-116 and 17.6 µM in the series with PANC-1.

`O=C1C(O)=C(C(NCc2ccc(F)c(F)c2)c2ccccn2)C(=O)c2ccccc21` (configuration not stated): the IC50 was 1.56 µM in the series with KB-V1, 3.05 µM in the series on 518A2 [9], 5.68 µM in the series with HCT-116 and 7.72 µM in the series with PANC-1.

`COc1cc(C(NCc2ccccn2)C2=C(O)C(=O)c3ccccc3C2=O)ccc1O` (configuration not stated): the “growth inhibition (GI)” value in the series on BXPC-3 [12], with PC-3 [13] and in the series with MDA-MB-231 [14] was “inactive” in each case.

As to `CCCCCCCNC(C1=C(O)C(=O)c2ccccc2C1=O)c1ccc(F)c(F)c1` (configuration not stated), the “growth inhibition (GI)” value with PC-3 [1], in the series on BXPC-3 [4] and in the series on MDA-MB-231 [6] was “inactive” in each case. In addition, the “growth inhibition (GI)” value in the series with BXPC-3 [2], with MDA-MB-231 [3] and with PC-3 [5] was “Active” each time.

`CCCCCCCNC(C1=C(O)C(=O)c2ccccc2C1=O)c1ccccn1` (configuration not stated): the IC50 was 3.73 µM in series [11]; 0.41 µM with KB-V1; 2.58 µM in the series with 518A2 [9]; 6.39 µM with HCT-116; 6.41 µM with PANC-1. In [15], the result was inactive. Besides, the Activity amounted to 50% with 518A2 [16] and 70% in the series on 518A2 [17].

As to `CCCCCCCCCCCCCCCCNC(C1=C(O)C(=O)c2ccccc2C1=O)c1ccc(F)c(F)c1` (configuration not stated), the “growth inhibition (GI)” value in the series on PC-3 [1], in the series on BXPC-3 [4] and in the series on MDA-MB-231 [6] was “inactive” each time. The “growth inhibition (GI)” value with BXPC-3 [2], in the series on MDA-MB-231 [3] and in the series with PC-3 [5] was “Active” each time.

With `CCCCCCCCCCCCNC(C1=C(O)C(=O)c2ccccc2C1=O)c1ccccn1` (configuration not stated), the outcome in series [18] and in series [20] was Active. For the same compound, the Activity result in the series with HeLa [19] is listed as “Non-Toxic”; in the series with 518A2 [16], 50%; in the series with HeLa [21], “Non-Toxic”; in the series on 518A2 [17] it was 70%. Further, the IC50 in series [11] was 0.646 µM; in the series on KB-V1, 0.32 µM; with 518A2 [9] it was 2.57 µM; in the series with HCT-116 it was 3.46 µM; with PANC-1, 1.79 µM. For the same compound, the “growth inhibition (GI)” value in the series on MDA-MB-231 [7], in the series with PC-3 [8] and with BXPC-3 [10] was “Active” each time.

As to `CCCCCCCCCCCCCCNC(C1=C(O)C(=O)c2ccccc2C1=O)c1ccccn1` (configuration not stated), the outcome in series [18], in [20] and in series [22] was Active. Also, the Activity result is listed as “Non-Toxic” with HeLa [19], 50% with 518A2 [16], “Non-Toxic” with HeLa [21] and 70% in the series on 518A2 [17]. The IC50 in series [11] stood at 0.35 µM; in the series with KB-V1, 0.43 µM; with 518A2 [9], 3.03 µM; in the series on HCT-116, 2.41 µM; in the series with PANC-1, 3.93 µM. Besides, the “growth inhibition (GI)” value in the series on MDA-MB-231 [7], in the series on PC-3 [8] and with BXPC-3 [10] was “Active” throughout.

For the compound `CCCCCCCNC(C1=C(O)C(=O)c2ccccc2C1=O)c1ccc(O)c(OC)c1` (configuration not stated), the “growth inhibition (GI)” value in the series with BXPC-3 [12], with PC-3 [13] and with MDA-MB-231 [14] was “inactive” throughout.

For `O=C1C(O)=C(C(NCc2ccccn2)c2ccc(F)c(F)c2)C(=O)c2ccccc21` (configuration not stated), the “growth inhibition (GI)” value in the series with PC-3 [1], in the series on BXPC-3 [4] and with MDA-MB-231 [6] was “inactive” throughout. For the same compound, the “growth inhibition (GI)” value in the series on BXPC-3 [2], with MDA-MB-231 [3] and with PC-3 [5] was “Active” each time.
